According to patent US11959486B2, “Stable liquid formulation of AMG 416 (etelcalcetide)” (AMGEN INC., priority 2013, dated 2024):
Where two headings read alike, the source gives them in different places.

Columns and labels:
[1] = Concentration dependent stability in 25 mM succinate-buffered saline pH 4.5, HPLC purity, with Arrhenius extrapolation (Example 2); format: physicochemical; conditions: for Degradation at 29 days, 40 C / Degradation at 29 days, RT: pH 4.5; for Predicted extent of degradation at 1 yr 5° C. / Predicted extent of degradation at 1 yr RT / Predicted extent of degradation at 2 yr 5° C. / Predicted extent of degradation at 2 yr RT: pH 4.5 SBS, from RT 29-day data
Description: In this study, the stability of AMG 416 over a range of concentrations in succinate-buffered saline (pH 4.5) was investigated. The solution of […] AMG 416 from Example 1, supra, was diluted further with 200 μL of succinate-buffered saline (pH 4.5) to a nominal concentration of 200 mg/mL, which was serially diluted with succinate-buffered saline (pH 4.5) to 66, 20, 6.7, 2.2 and 0.67 mg/mL. The samples were kept at room temperature (i.e., about 25° C.) and aliquots were analyzed by HPLC at intervals up to 29 days. A second series of AMG 416 samples covering the concentration range 20 to 0.67 mg/mL were incubated at 40° C. and analyzed in the same manner.
The room temperature 29-day data from Table 1 was extrapolated to the stated time period by assuming linear degradation kinetics. Room temperature data was extrapolated to 5° C. A 20° C. difference was assumed, equivalent to a 4-fold lower rate of degradation. Extrapolations were carried out using a simple application of the Arrhenius equation, where at 10° C. rise in temperature provides a 2-fold increase in reaction rate, assuming the same reaction mechanism and that activation energy for each relevant reaction is around 50 kJ/mol.
Comparison of the data shown in Tables 1 and 2 allows assessment of temperature increase as a tool to predict the long-term stability of AMG 416 solutions.

[2] = 5 mg/mL
Description: In this study, the effects of various pharmaceutical excipients on the stability of AMG 416 in liquid formulation were determined. A 10 mg/mL solution of AMG 416 and stock solutions of mannitol, glycine, arginine, NaCl and Na2SO4 at 2× isotonic concentrations were prepared. The pH of the AMG 416 solution and the five excipient solutions and deionized water separately were adjusted to pH 3.5 using HCl/NaOH. 500 μL aliquots of each of the six solutions were added to glass vials and 500 μL of the AMG 416 solution was added to the same vials and mixed well. This was performed in triplicate to provided eighteen sample vials, each containing 5 mg/mL AMG 416 and an isotonic concentration of the excipient (or deionized water). This was repeated with a set of solutions adjusted to pH 4.5, providing a further eighteen sample vials. The samples were incubated and removed for HPLC analysis at relevant time points.

physchem = conditions: succinate buffered saline, pH 4.5
Description: In this study, the solubility of AMG 416 in succinate buffered-saline was investigated. […] After briefly vortexing, a clear solution was obtained with a nominal concentration of 400 mg/mL. Because expansion of the solution volume was not determined, the solubility of AMG 416 can be conservatively stated as at least 200 mg/mL. Although the maximal solubility was not determined in this experiment, AMG 416 is soluble in pH 4.5 succinate buffered saline to concentrations of at least 200 mg/mL.

CC(=O)N[C@H](CSSC[C@H](N)C(=O)O)C(=O)N[C@H](C)C(=O)N[C@H](CCCNC(=N)N)C(=O)N[C@H](CCCNC(=N)N)C(=O)N[C@H](CCCNC(=N)N)C(=O)N[C@H](C)C(=O)N[C@H](CCCNC(=N)N)C(N)=O [AMG 416, N-acetyl-D-cysteinyl-D-alanyl-D-arginyl-D-arginyl-D-arginyl-D-alanyl-D-arginamide disulfide with L-cysteine]
Degradation at 29 days, 40 C ([1]; 0.67 mg/mL): 5.0% | Degradation at 29 days, RT ([1]; 0.67 mg/mL): 0.1% | Predicted extent of degradation at 1 yr 5° C. ([1]; 0.67 mg/mL): 0.3% | Predicted extent of degradation at 1 yr RT ([1]; 0.67 mg/mL): 1.4% | Predicted extent of degradation at 2 yr 5° C. ([1]; 0.67 mg/mL): 0.7% | Predicted extent of degradation at 2 yr RT ([1]; 0.67 mg/mL): 2.7% | Degradation at 29 days, 40 C ([1]; 2.2 mg/mL): 5.0% | Degradation at 29 days, RT ([1]; 2.2 mg/mL): 0.2% | Predicted extent of degradation at 1 yr 5° C. ([1]; 2.2 mg/mL): 0.7% | Predicted extent of degradation at 1 yr RT ([1]; 2.2 mg/mL): 2.6% | Predicted extent of degradation at 2 yr 5° C. ([1]; 2.2 mg/mL): 1.3% | Predicted extent of degradation at 2 yr RT ([1]; 2.2 mg/mL): 5.2% | Degradation at 29 days, 40 C ([1]; 6.7 mg/mL): 9.4% | Degradation at 29 days, RT ([1]; 6.7 mg/mL): 0.5% | Predicted extent of degradation at 1 yr 5° C. ([1]; 6.7 mg/mL): 1.7% | Predicted extent of degradation at 1 yr RT ([1]; 6.7 mg/mL): 7.0% | Predicted extent of degradation at 2 yr 5° C. ([1]; 6.7 mg/mL): 3.5% | Predicted extent of degradation at 2 yr RT ([1]; 6.7 mg/mL): 13.9% | Degradation at 29 days, 40 C ([1]; 20 mg/mL): 26.7% | Degradation at 29 days, RT ([1]; 20 mg/mL): 0.9% | Predicted extent of degradation at 1 yr 5° C. ([1]; 20 mg/mL): 2.6% | Predicted extent of degradation at 1 yr RT ([1]; 20 mg/mL): 10.4% | Predicted extent of degradation at 2 yr 5° C. ([1]; 20 mg/mL): 5.2% | Predicted extent of degradation at 2 yr RT ([1]; 20 mg/mL): 20.9% | Predicted extent of degradation at 1 yr 5° C. ([1]; 66 mg/mL): 25.0% | Predicted extent of degradation at 1 yr RT ([1]; 66 mg/mL): >100% | Predicted extent of degradation at 2 yr 5° C. ([1]; 66 mg/mL): 50.1% | Predicted extent of degradation at 2 yr RT ([1]; 66 mg/mL): >100% | Extent of degradation at 56 days ([2]; Arg, pH 3.5, 2-8° C.): 0.0% | Extent of degradation at 56 days ([2]; Arg, pH 3.5, 40° C.): 28% | Extent of degradation at 56 days ([2]; Arg, pH 3.5, RT): 0.6% | Predicted extent of degradation After 2 Year Storage at Room Temperature ([2]; Arg, pH 3.5, from 2-8° C. data): 2% | Predicted extent of degradation After 2 Year Storage at Room Temperature ([2]; Arg, pH 3.5, from 40° C. data): 90% | Predicted extent of degradation After 2 Year Storage at Room Temperature ([2]; Arg, pH 3.5, from RT data): 7% | Extent of degradation at 56 days ([2]; Arg, pH 4.5, 2-8° C.): 0.5% | Extent of degradation at 56 days ([2]; Arg, pH 4.5, 40° C.): 67% | Extent of degradation at 56 days ([2]; Arg, pH 4.5, RT): 29% | Predicted extent of degradation After 2 Year Storage at Room Temperature ([2]; Arg, pH 4.5, from 2-8° C. data): 27% | Predicted extent of degradation After 2 Year Storage at Room Temperature ([2]; Arg, pH 4.5, from 40° C. data): >100% | Predicted extent of degradation After 2 Year Storage at Room Temperature ([2]; Arg, pH 4.5, from RT data): >100% | Extent of degradation at 56 days ([2]; DI Water, pH 3.5, 2-8° C.): 0.0% | Extent of degradation at 56 days ([2]; DI Water, pH 3.5, 40° C.): 8.2% | Extent of degradation at 56 days ([2]; DI Water, pH 3.5, RT): 1.0% | Predicted extent of degradation After 2 Year Storage at Room Temperature ([2]; DI Water, pH 3.5, from 2-8° C. data): 1% | Predicted extent of degradation After 2 Year Storage at Room Temperature ([2]; DI Water, pH 3.5, from 40° C. data): 27% | Predicted extent of degradation After 2 Year Storage at Room Temperature ([2]; DI Water, pH 3.5, from RT data): 13% | Extent of degradation at 56 days ([2]; DI Water, pH 4.5, 2-8° C.): 0.7% | Extent of degradation at 56 days ([2]; DI Water, pH 4.5, 40° C.): 24% | Extent of degradation at 56 days ([2]; DI Water, pH 4.5, RT): 3.6% | Predicted extent of degradation After 2 Year Storage at Room Temperature ([2]; DI Water, pH 4.5, from 2-8° C. data): 35% | Predicted extent of degradation After 2 Year Storage at Room Temperature ([2]; DI Water, pH 4.5, from 40° C. data): 77% | Predicted extent of degradation After 2 Year Storage at Room Temperature ([2]; DI Water, pH 4.5, from RT data): 47% | Extent of degradation at 56 days ([2]; Gly, pH 3.5, 2-8° C.): 0.0% | Extent of degradation at 56 days ([2]; Gly, pH 3.5, 40° C.): 17% | Extent of degradation at 56 days ([2]; Gly, pH 3.5, RT): 0.6% | Predicted extent of degradation After 2 Year Storage at Room Temperature ([2]; Gly, pH 3.5, from 2-8° C. data): 3% | Predicted extent of degradation After 2 Year Storage at Room Temperature ([2]; Gly, pH 3.5, from 40° C. data): 55% | Predicted extent of degradation After 2 Year Storage at Room Temperature ([2]; Gly, pH 3.5, from RT data): 8% | Extent of degradation at 56 days ([2]; Gly, pH 4.5, 2-8° C.): 0.6% | Extent of degradation at 56 days ([2]; Gly, pH 4.5, 40° C.): 28% | Extent of degradation at 56 days ([2]; Gly, pH 4.5, RT): 6.4% | Predicted extent of degradation After 2 Year Storage at Room Temperature ([2]; Gly, pH 4.5, from 2-8° C. data): 31% | Predicted extent of degradation After 2 Year Storage at Room Temperature ([2]; Gly, pH 4.5, from 40° C. data): 90% | Predicted extent of degradation After 2 Year Storage at Room Temperature ([2]; Gly, pH 4.5, from RT data): 83% | Extent of degradation at 56 days ([2]; Mannitol, pH 3.5, 2-8° C.): 0.0% | Extent of degradation at 56 days ([2]; Mannitol, pH 3.5, 40° C.): 4.9% | Extent of degradation at 56 days ([2]; Mannitol, pH 3.5, RT): 0.5% | Predicted extent of degradation After 2 Year Storage at Room Temperature ([2]; Mannitol, pH 3.5, from 2-8° C. data): 0% | Predicted extent of degradation After 2 Year Storage at Room Temperature ([2]; Mannitol, pH 3.5, from 40° C. data): 16% | Predicted extent of degradation After 2 Year Storage at Room Temperature ([2]; Mannitol, pH 3.5, from RT data): 7% | Extent of degradation at 56 days ([2]; Mannitol, pH 4.5, 2-8° C.): 0.5% | Extent of degradation at 56 days ([2]; Mannitol, pH 4.5, 40° C.): 23% | Extent of degradation at 56 days ([2]; Mannitol, pH 4.5, RT): 2.2% | Predicted extent of degradation After 2 Year Storage at Room Temperature ([2]; Mannitol, pH 4.5, from 2-8° C. data): 28% | Predicted extent of degradation After 2 Year Storage at Room Temperature ([2]; Mannitol, pH 4.5, from 40° C. data): 75% | Predicted extent of degradation After 2 Year Storage at Room Temperature ([2]; Mannitol, pH 4.5, from RT data): 28% | Extent of degradation at 56 days ([2]; Na2SO4, pH 3.5, 2-8° C.): 0.0% | Extent of degradation at 56 days ([2]; Na2SO4, pH 3.5, 40° C.): 9.4% | Extent of degradation at 56 days ([2]; Na2SO4, pH 3.5, RT): 0.4% | Predicted extent of degradation After 2 Year Storage at Room Temperature ([2]; Na2SO4, pH 3.5, from 2-8° C. data): 2% | Predicted extent of degradation After 2 Year Storage at Room Temperature ([2]; Na2SO4, pH 3.5, from 40° C. data): 31% | Predicted extent of degradation After 2 Year Storage at Room Temperature ([2]; Na2SO4, pH 3.5, from RT data): 5% | Extent of degradation at 56 days ([2]; Na2SO4, pH 4.5, 2-8° C.): 0.4% | Extent of degradation at 56 days ([2]; Na2SO4, pH 4.5, 40° C.): 30% | Extent of degradation at 56 days ([2]; Na2SO4, pH 4.5, RT): 51% | Predicted extent of degradation After 2 Year Storage at Room Temperature ([2]; Na2SO4, pH 4.5, from 2-8° C. data): 22% | Predicted extent of degradation After 2 Year Storage at Room Temperature ([2]; Na2SO4, pH 4.5, from 40° C. data): 98% | Predicted extent of degradation After 2 Year Storage at Room Temperature ([2]; Na2SO4, pH 4.5, from RT data): >100% | Extent of degradation at 56 days ([2]; NaCl, pH 3.5, 2-8° C.): 0.1% | Extent of degradation at 56 days ([2]; NaCl, pH 3.5, 40° C.): 3.0% | Extent of degradation at 56 days ([2]; NaCl, pH 3.5, RT): 0.3% | Predicted extent of degradation After 2 Year Storage at Room Temperature ([2]; NaCl, pH 3.5, from 2-8° C. data): 4% | Predicted extent of degradation After 2 Year Storage at Room Temperature ([2]; NaCl, pH 3.5, from 40° C. data): 10% | Predicted extent of degradation After 2 Year Storage at Room Temperature ([2]; NaCl, pH 3.5, from RT data): 4% | Extent of degradation at 56 days ([2]; NaCl, pH 4.5, 2-8° C.): 1.1% | Extent of degradation at 56 days ([2]; NaCl, pH 4.5, 40° C.): 18% | Extent of degradation at 56 days ([2]; NaCl, pH 4.5, RT): 1.8% | Predicted extent of degradation After 2 Year Storage at Room Temperature ([2]; NaCl, pH 4.5, from 2-8° C. data): 56% | Predicted extent of degradation After 2 Year Storage at Room Temperature ([2]; NaCl, pH 4.5, from 40° C. data): 58% | Predicted extent of degradation After 2 Year Storage at Room Temperature ([2]; NaCl, pH 4.5, from RT data): 24% | solubility (physchem): ≥ 200 mg/mL
